Assay results reported in article PMC10133546, “Simultaneous determination of multiple components in rat plasma by UHPLC-sMRM for pharmacokinetic studies after oral administration of Qingjin Yiqi Granules” (Frontiers in Pharmacology, 2023).

Columns and labels:
[1] = Stability of analytes in rat plasma (auto-sampler, freeze-thaw, room temperature, long-term); conditions: for Autosampler for 24 h Accuracy (%): autosampler 24 h; for Room temperature for 24 h Accuracy (%): room temperature 24 h; for Freeze thaw cycles Accuracy (%): three freeze-thaw cycles; for −80°C for 1month Accuracy (%): −80°C 1 month
Description: (§1) The stability of analytes in plasma was evaluated by analyzing 4 QC samples (n = 6). The stability was included auto-sampler stability (keeping the sample in auto-sampler for 24 h), three times of freeze-thaw cycles stability (freezing cycle at −80°C, thawing cycle at room temperature), room temperature stability (storing samples at room temperature for 24 h), long-term stability (storing samples at −80°C for 1 month). […] Accompanying curve was established when testing the sample, calculate and compare the ratio of the actual measured concentration to the theoretical concentration, expressed in accuracy and RSD.

[2] = parameters: method as in Wang et al., 2008; Feng et al., 2017; conditions: alkaline and light and heat conditions; ref Wang et al., 2008; Feng et al., 2017; cited from earlier work
[3] = test system: Caco-2 cell; parameters: method as in Cai et al., 2016; conditions: compared with baicalin; ref Cai et al., 2016; cited from earlier work
[4] = Stability of the working solution (4°C for 1 month); type: physicochemical
Description: as §1

[5] = Pharmacokinetic study in rat plasma after oral administration of QJYQ (UHPLC-sMRM); type: in vivo, Sprague-Dawley rats; conditions: rat, in vivo, po, 3.15 g/kg

## COc1c(O[C@@H]2O[C@H](C(=O)O)[C@@H](O)[C@H](O)[C@H]2O)cc(O)c2c(=O)cc(-c3ccccc3)oc12 [wogonoside]
[1]; 62.5 ng/mL
  Autosampler for 24 h Accuracy (%): 89.7%
  Room temperature for 24 h Accuracy (%): 83.2%
  Freeze thaw cycles Accuracy (%): 84.2%
  −80°C for 1month Accuracy (%): 83.7%
[1]; 500 ng/mL
  Autosampler for 24 h Accuracy (%): 105.0%
  Room temperature for 24 h Accuracy (%): 93.4%
  −80°C for 1month Accuracy (%): 113.0%
[1]; 1000 ng/mL
  Autosampler for 24 h Accuracy (%): 98.7%
  Room temperature for 24 h Accuracy (%): 85.6%
  Freeze thaw cycles Accuracy (%): 95.1%
  −80°C for 1month Accuracy (%): 98.0%
[1]; 5000 ng/mL
  Autosampler for 24 h Accuracy (%): 97.5%
  Room temperature for 24 h Accuracy (%): 111.0%
  Freeze thaw cycles Accuracy (%): 90.9%
  −80°C for 1month Accuracy (%): 89.1%
[2]
  stability: not stable
[3]
  Caco-2 cell membrane permeability: greater than baicalin
[4]; 62.5 ng/mL
  Working solution Accuracy (%): 91.0%
[4]; 500 ng/mL
  Working solution Accuracy (%): 113.0%
[4]; 1000 ng/mL
  Working solution Accuracy (%): 105.0%
[4]; 5000 ng/mL
  Working solution Accuracy (%): 108.0%
[5]
  AUC(0-t): 73080.32 ± 34091.07 ng·h/mL
  AUC(0-∞): 73104.07 ± 34093.59 ng·h/mL
  Cmax: 5052.10 ± 3277.54 ng/mL
  MRT: greater than 8 h
  MRT (0-∞): 8.40 ± 0.83 h
  MRT(0-t): 8.39 ± 0.83 h
  T1/2: 2.67 ± 0.24 h
  Tmax: 5.89 ± 3.26 h
